Our source for the activity coefficient values is the NIST ThermoML archive (doi:10.1016/j.fluid.2006.07.015).

The structures appear in SMILES notation. ± gives the expanded uncertainty stated by the source.

One data set in a line: activity coefficient (dimensionless); of the first substance listed, at infinite dilution; xn = mol fraction of the nth substance listed. As to conditions: 403.15 K; 101 kPa; Liquid; Chromatography; x1 = 0.
With `C=CCCCCCCCCCCC` [1-tridecene] + CCCCCCCCCCCCCCCCCCC(CCCCCCCCCCCCCCCCCC)CCCCC(CCCCCCCCCCCCCCCCCC)CCCCCCCCCCCCCCCCCC, the activity coefficient was found to be 0.466 ± 0.033.
Regarding `C=CCCCCCCCCC` [1-undecene] + CCCCCCCCCCCCCCCCCCC(CCCCCCCCCCCCCCCCCC)CCCCC(CCCCCCCCCCCCCCCCCC)CCCCCCCCCCCCCCCCCC, the activity coefficient was found to be 0.435 ± 0.033.
`C1CCC2CCCC2C1` (stereo unspecified) [1H-indene, octahydro-] + CCCCCCCCCCCCCCCCCCC(CCCCCCCCCCCCCCCCCC)CCCCC(CCCCCCCCCCCCCCCCCC)CCCCCCCCCCCCCCCCCC: the activity coefficient is 0.269 ± 0.036.
For `CC(C)C(C)(C)C` [2,2,3-trimethylbutane] + CCCCCCCCCCCCCCCCCCC(CCCCCCCCCCCCCCCCCC)CCCCC(CCCCCCCCCCCCCCCCCC)CCCCCCCCCCCCCCCCCC, the activity coefficient was found to be 0.348 ± 0.035.
With `CC(C)CC(C)(C)C` [2,2,4-trimethylpentane] + CCCCCCCCCCCCCCCCCCC(CCCCCCCCCCCCCCCCCC)CCCCC(CCCCCCCCCCCCCCCCCC)CCCCCCCCCCCCCCCCCC, the activity coefficient was 0.401 ± 0.034.
On to `CC(C)C(C)C(C)C` [2,3,4-trimethylpentane] + CCCCCCCCCCCCCCCCCCC(CCCCCCCCCCCCCCCCCC)CCCCC(CCCCCCCCCCCCCCCCCC)CCCCCCCCCCCCCCCCCC, for which the activity coefficient turned out to be 0.358 ± 0.035.
Turning to `CCC(C)CC(C)C` (stereo unspecified) [2,4-dimethylhexane] + CCCCCCCCCCCCCCCCCCC(CCCCCCCCCCCCCCCCCC)CCCCC(CCCCCCCCCCCCCCCCCC)CCCCCCCCCCCCCCCCCC, the activity coefficient was 0.396 ± 0.034.
As to `CC(C)CC(C)C` [2,4-dimethylpentane] + CCCCCCCCCCCCCCCCCCC(CCCCCCCCCCCCCCCCCC)CCCCC(CCCCCCCCCCCCCCCCCC)CCCCCCCCCCCCCCCCCC, the activity coefficient came out at 0.394 ± 0.034.
For the compound `CC#CCCC` [2-hexyne] + CCCCCCCCCCCCCCCCCCC(CCCCCCCCCCCCCCCCCC)CCCCC(CCCCCCCCCCCCCCCCCC)CCCCCCCCCCCCCCCCCC, the activity coefficient stood at 0.377 ± 0.034.
With `CCC(C)C(C)CC` (stereo unspecified) [3,4-dimethylhexane] + CCCCCCCCCCCCCCCCCCC(CCCCCCCCCCCCCCCCCC)CCCCC(CCCCCCCCCCCCCCCCCC)CCCCCCCCCCCCCCCCCC, the activity coefficient was determined as 0.36 ± 0.035.
In the case of `CCC#CCC` [3-hexyne] + CCCCCCCCCCCCCCCCCCC(CCCCCCCCCCCCCCCCCC)CCCCC(CCCCCCCCCCCCCCCCCC)CCCCCCCCCCCCCCCCCC, the activity coefficient worked out at 0.406 ± 0.034.
With `CCCC#CCCC` [4-octyne] + CCCCCCCCCCCCCCCCCCC(CCCCCCCCCCCCCCCCCC)CCCCC(CCCCCCCCCCCCCCCCCC)CCCCCCCCCCCCCCCCCC, the activity coefficient was determined as 0.424 ± 0.034.
On to `C1C2CC3CC1CC(C2)C3` [adamantane] + CCCCCCCCCCCCCCCCCCC(CCCCCCCCCCCCCCCCCC)CCCCC(CCCCCCCCCCCCCCCCCC)CCCCCCCCCCCCCCCCCC, for which the activity coefficient came out at 0.337 ± 0.035.

Staying with this data set, now noted: 418.15 K; 101 kPa; Liquid; Chromatography; x1 = 0.
Turning to `C1=CCCC=C1` [1,3-cyclohexadiene] + CCCCCCCCCCCCCCCCCCC(CCCCCCCCCCCCCCCCCC)CCCCC(CCCCCCCCCCCCCCCCCC)CCCCCCCCCCCCCCCCCC, the activity coefficient came out at 0.252 ± 0.036.
For the compound `C1=CCC=CC1` [1,4-cyclohexadiene] + CCCCCCCCCCCCCCCCCCC(CCCCCCCCCCCCCCCCCC)CCCCC(CCCCCCCCCCCCCCCCCC)CCCCCCCCCCCCCCCCCC, the activity coefficient came to 0.238 ± 0.036.
As for `C=CCCCCCCCC` [1-decene] + CCCCCCCCCCCCCCCCCCC(CCCCCCCCCCCCCCCCCC)CCCCC(CCCCCCCCCCCCCCCCCC)CCCCCCCCCCCCCCCCCC, the activity coefficient is 0.416 ± 0.034.
Turning to `C#CCCCCCCCC` [1-decyne] + CCCCCCCCCCCCCCCCCCC(CCCCCCCCCCCCCCCCCC)CCCCC(CCCCCCCCCCCCCCCCCC)CCCCCCCCCCCCCCCCCC, the activity coefficient is 0.446 ± 0.033.
Regarding `C=CCCCCCCCCCC` [1-dodecene] + CCCCCCCCCCCCCCCCCCC(CCCCCCCCCCCCCCCCCC)CCCCC(CCCCCCCCCCCCCCCCCC)CCCCCCCCCCCCCCCCCC, the activity coefficient worked out at 0.453 ± 0.033.
The same measure, in the same setting: the result for `C=CCCCCC` [1-heptene] + CCCCCCCCCCCCCCCCCCC(CCCCCCCCCCCCCCCCCC)CCCCC(CCCCCCCCCCCCCCCCCC)CCCCCCCCCCCCCCCCCC reads 0.357 ± 0.035; that for `C#CCCCCC` [1-heptyne] + CCCCCCCCCCCCCCCCCCC(CCCCCCCCCCCCCCCCCC)CCCCC(CCCCCCCCCCCCCCCCCC)CCCCCCCCCCCCCCCCCC, 0.399 ± 0.034.
On the same count and under the same terms, the result for `C#CCCCC` [1-hexyne] + CCCCCCCCCCCCCCCCCCC(CCCCCCCCCCCCCCCCCC)CCCCC(CCCCCCCCCCCCCCCCCC)CCCCCCCCCCCCCCCCCC reads 0.364 ± 0.035.
`C=CCCCCCCC` [1-nonene] + CCCCCCCCCCCCCCCCCCC(CCCCCCCCCCCCCCCCCC)CCCCC(CCCCCCCCCCCCCCCCCC)CCCCCCCCCCCCCCCCCC: the activity coefficient is 0.396 ± 0.034.
Turning to `C#CCCCCCCC` [1-nonyne] + CCCCCCCCCCCCCCCCCCC(CCCCCCCCCCCCCCCCCC)CCCCC(CCCCCCCCCCCCCCCCCC)CCCCCCCCCCCCCCCCCC, the activity coefficient worked out at 0.431 ± 0.034.
Take `C#CCCCCCC` [1-octyne] + CCCCCCCCCCCCCCCCCCC(CCCCCCCCCCCCCCCCCC)CCCCC(CCCCCCCCCCCCCCCCCC)CCCCCCCCCCCCCCCCCC: the activity coefficient came to 0.412 ± 0.034.
With `C=CCCCCCCCCCCCC` [1-tetradecene] + CCCCCCCCCCCCCCCCCCC(CCCCCCCCCCCCCCCCCC)CCCCC(CCCCCCCCCCCCCCCCCC)CCCCCCCCCCCCCCCCCC, the activity coefficient turned out to be 0.476 ± 0.033.
Still for that read-out and setting: the figure for `C=CCCCCCCCCCCC` [1-tridecene] + CCCCCCCCCCCCCCCCCCC(CCCCCCCCCCCCCCCCCC)CCCCC(CCCCCCCCCCCCCCCCCC)CCCCCCCCCCCCCCCCCC is 0.467 ± 0.033; for `C=CCCCCCCCCC` [1-undecene] + CCCCCCCCCCCCCCCCCCC(CCCCCCCCCCCCCCCCCC)CCCCC(CCCCCCCCCCCCCCCCCC)CCCCCCCCCCCCCCCCCC it is 0.436 ± 0.033.
The same measure, in the same setting: the result for `C1CCC2CCCC2C1` (stereo unspecified) [1H-indene, octahydro-] + CCCCCCCCCCCCCCCCCCC(CCCCCCCCCCCCCCCCCC)CCCCC(CCCCCCCCCCCCCCCCCC)CCCCCCCCCCCCCCCCCC reads 0.266 ± 0.036; that for `CC(C)C(C)(C)C` [2,2,3-trimethylbutane] + CCCCCCCCCCCCCCCCCCC(CCCCCCCCCCCCCCCCCC)CCCCC(CCCCCCCCCCCCCCCCCC)CCCCCCCCCCCCCCCCCC, 0.349 ± 0.035.
`CC(C)CC(C)(C)C` [2,2,4-trimethylpentane] + CCCCCCCCCCCCCCCCCCC(CCCCCCCCCCCCCCCCCC)CCCCC(CCCCCCCCCCCCCCCCCC)CCCCCCCCCCCCCCCCCC: the activity coefficient was determined as 0.405 ± 0.034.
On the same count and under the same terms, the figure for `CC(C)C(C)C(C)C` [2,3,4-trimethylpentane] + CCCCCCCCCCCCCCCCCCC(CCCCCCCCCCCCCCCCCC)CCCCC(CCCCCCCCCCCCCCCCCC)CCCCCCCCCCCCCCCCCC is 0.36 ± 0.035.
